In patent publication US20110257211A1, “Small-Molecule Choline Kinase Inhibitors as Anti-Cancer Therapeutics” (ADVANCED CANCER THERAPEUTICS, LLC, priority 2010, published 2011):

Columns and labels:
[1] = system: MDA-MB-231; assay: Inhibition of cancer cell proliferation, Alamar Blue assay (MDA-MB-231); assay type: cell-based; conditions: Homo sapiens, Table 2A, Alamar Blue, 72 hours exposure, read-out: IC50s MDA-MB231
Procedure: (§1) The ability of the compounds described herein to kill or inhibit the proliferation of cancer cells was measured using the Alamar Blue assay using a 72 hours exposure. Results for different cancer cell lines are shown in, the Table 2 below (hematopoietic cell lines U937 and K562; MDA-MB-231 a breast cancer cell line; and NCI-H82 and Calu-6, two lung cancer cell lines): […]

[2] = system: Calu-6; assay: Inhibition of cancer cell proliferation, Alamar Blue assay (Calu-6); assay type: cell-based; conditions: Homo sapiens, Table 2A, Alamar Blue, 72 hours exposure, read-out: IC50s Calu-6
Procedure: as §1

[3] = system: U937; assay: Inhibition of cancer cell proliferation, Alamar Blue assay (U937); assay type: cell-based; conditions: Homo sapiens, U-937; Table 2A; Alamar Blue, 72 hours exposure; read-out: IC50s U937
Procedure: as §1

[4] = Microsomal stability in human liver microsomes; assay type: in vitro ADME
Description: Microsomal stability in vitro in different biologic media and species is ascertained when screening compounds to evaluate the rate at which a compound undergoes metabolism.

[5] = system: K562; assay: Inhibition of cancer cell proliferation, Alamar Blue assay (K562); assay type: cell-based; conditions: Homo sapiens, Table 2A, Alamar Blue, 72 hours exposure, read-out: IC50s K562
Procedure: as §1

Row | SMILES | IC50 [1] [µM] | IC50 [2] [µM] | IC50 [3] [µM] | % Metabolized (mean) [4] [%] | IC50 [5] [µM]
1 | CCOc1ccc(-c2nnc(SCC(=O)Nc3cc(C)cc(C)c3)[nH]2)cc1C [ACT-CK-142, N-(3,5-Dimethyl-phenyl)-2-[5-(4-ethoxy-3-methyl-phenyl)-4H-[1,2,4]triazol-3-ylsulfanyl]-acetamide] | 50 | 0.09 | 0.035 | 99 | 0.12
2 | CCOc1ccc(-c2nnc(SCC(=O)Nc3cc(F)ccc3C)[nH]2)cc1 [ACT-CK-067, 2-[5-(4-Ethoxy-phenyl)-4H-[1,2,4]triazol-3-ylsulfanyl]-N-(5-fluoro-2-methyl-phenyl)-acetamide] | 19.2 |  |  |  | 1.6
3 | COc1ccc(-c2nnc(SCC(=O)Nc3cc(C)ccc3F)[nH]2)cc1 [ACT-CK-085, N-(2-Fluoro-5-methyl-phenyl)-2-[5-(4-methoxy-phenyl)-4H-[1,2,4]triazol-3-ylsulfanyl]-acetamide] | 16.3 |  |  |  | 4.4
4 | CCCOc1ccc(-c2nnc(SCC(=O)Nc3cc(C)ccc3F)[nH]2)cc1 [ACT-CK-120, N-(2-Fluoro-5-methyl-phenyl)-2-[5-(4-propoxy-phenyl)-4H-[1,2,4]triazol-3-ylsulfanyl]-acetamide] | 9 |  |  |  | 43
5 | CCOc1ccc(-c2nnc(SCC(=O)Nc3cccc(C)c3C)[nH]2)cc1 [ACT-CK-076, N-(2,3-Dimethyl-phenyl)-2-[5-(4-ethoxy-phenyl)-4H-[1,2,4]triazol-3-ylsulfanyl]-acetamide] | 21.2 |  |  |  | 14.6
6 | Cc1cc(C)cc(NC(=O)CSc2nnc(-c3cc4ccccc4[nH]3)[nH]2)c1 [ACT-CK-124, N-(3,5-Dimethyl-phenyl)-2-[5-(1H-indol-2-yl)-4H-[1,2,4]triazol-3-ylsulfanyl]-acetamide] | 16 |  |  |  | 23
7 | COc1ccc(-c2nnc(SCC(=O)Nc3c(F)cccc3F)[nH]2)cc1 [ACT-CK-061, N-(2,6-Difluoro-phenyl)-2-[5-(4-methoxy-phenyl)-4H-[1,2,4]triazol-3-ylsulfanyl]-acetamide] | > 100 |  |  |  | 28.1
8 | CCOc1ccc(-c2nnc(SCC(=O)Nc3cc(C)cc(C)c3)[nH]2)cn1 [ACT-CK-143, N-(3,5-Dimethyl-phenyl)-2-[5-(6-ethoxy-pyridin-3-yl)-4H-[1,2,4]triazol-3-ylsulfanyl]-acetamide] |  |  |  | 34 | 
9 | CCOc1ccc(-c2nnc(SCC(=O)Nc3cc(OC)ccc3OC)[nH]2)cc1 [ACT-CK-093, N-(2,5-Dimethoxy-phenyl)-2-[5-(4-ethoxy-phenyl)-4H-[1,2,4]triazol-3-ylsulfanyl]-acetamide] | 15.7 |  |  |  | 6.16
10 | CCOc1ccc(-c2nnc(SCC(=O)Nc3cc(C)cc(C)n3)[nH]2)cc1 [ACT-CK-147, N-(4,6-Dimethyl-pyridin-2-yl)-2-[5-(4-ethoxy-phenyl)-4H-[1,2,4]triazol-3-ylsulfanyl]-acetamide] | 53 | 0.74 | 0.63 | 91 | 0.97
11 | COc1cccc(-c2nnc(SCC(=O)Nc3cc(C)cc(C)c3)[nH]2)c1 [ACT-CK-140, N-(3,5-Dimethyl-phenyl)-2-[5-(3-methoxy-phenyl)-4H-[1,2,4]triazol-3-ylsulfanyl]-acetamide] | 79 | 41.6 | 20.4 |  | 41
12 | CCOc1ccc(-c2nnc(SCC(=O)Nc3ccc(OC)cc3C)[nH]2)cc1 [ACT-CK-087, 2-[5-(4-Ethoxy-phenyl)-4H-[1,2,4]triazol-3-ylsulfanyl]-N-(4-methoxy-2-methyl-phenyl)-acetamide] | 10.6 |  |  |  | 8.86
13 | Cc1cc(C)cc(NC(=O)CSc2nnc(-c3ccc(O)cc3)[nH]2)c1 [ACT-CK-146, N-(3,5-Dimethyl-phenyl)-2-[5-(4-hydroxy-phenyl)-4H-[1,2,4]triazol-3-ylsulfanyl]-acetamide] | 91 | 54 | 34.1 | 85 | 31.7
14 | CCOc1ccc(-c2nnc(SCC(=O)Nc3ccc(F)cc3F)[nH]2)cc1 [ACT-CK-064, N-(2,4-Difluoro-phenyl)-2-[5-(4-ethoxy-phenyl)-4H-[1,2,4]triazol-3-ylsulfanyl]-acetamide] | 70.6 |  |  |  | 39.5
15 | CCOc1ccc(-c2nnc(SCC(=O)Nc3cc(C)ccc3F)[nH]2)cc1 [ACT-CK-071, 2-[5-(4-Ethoxy-phenyl)-4H-[1,2,4]triazol-3-ylsulfanyl]-N-(2-fluoro-5-methyl-phenyl)-acetamide] | 40.2 |  |  |  | 0.81
16 | CCCOc1ccc(-c2nnc(SCC(=O)Nc3cc(C)cc(C)c3)[nH]2)cc1 [ACT-CK-118, N-(3,5-Dimethyl-phenyl)-2-[5-(4-propoxy-phenyl)-4H-[1,2,4]triazol-3-ylsulfanyl]-acetamide] | 5.6 |  |  |  | 1.4
17 | CCOc1ccc(-c2nnc(SCC(=O)Nc3cc(C)nc(C)c3)[nH]2)cc1 [ACT-CK-151, N-(2,6-Dimethyl-pyridin-4-yl)-2-[5-(4-ethoxy-phenyl)-4H-[1,2,4]triazol-3-ylsulfanyl]-acetamide] |  |  |  | 91 | 
18 | CCOc1cccc(-c2nnc(SCC(=O)Nc3cc(C)cc(C)c3)[nH]2)c1 [ACT-CK-141, N-(3,5-Dimethyl-phenyl)-2-[5-(3-ethoxy-phenyl)-4H-[1,2,4]triazol-3-ylsulfanyl]-acetamide] | 88 | 43 | 49 |  | 39
19 | CCCOc1ccc(-c2nnc(SCC(=O)Nc3cc(OC)cc(OC)c3)[nH]2)cc1 [ACT-CK-119, N-(3,5-Dimethoxy-phenyl)-2-[5-(4-propoxy-phenyl)-4H-[1,2,4]triazol-3-ylsulfanyl]-acetamide] | 11 |  |  |  | 28
20 | Cc1cc(C)cc(NC(=O)CSc2nnc(-c3ccc(OCCO)cc3)[nH]2)c1 [ACT-CK-155, N-(3,5-Dimethyl-phenyl)-2-{5-[4-(2-hydroxy-ethoxy)-phenyl]-4H-[1,2,4]triazol-3-ylsulfanyl}-acetamide] |  |  |  | 69 | 
21 | CCOc1ccc(-c2nnc(SCC(=O)Nc3ccc(C)cc3C)[nH]2)cc1 [ACT-CK-097, N-(2,4-Dimethyl-phenyl)-2-[5-(4-ethoxy-phenyl)-4H-[1,2,4]triazol-3-ylsulfanyl]-acetamide] | 12 |  |  |  | 3.78
22 | COc1ccc(-c2nnc(SCC(=O)Nc3cccc(C)c3C)[nH]2)cc1 [ACT-CK-070, N-(2,3-Dimethyl-phenyl)-2-[5-(4-methoxy-phenyl)-4H-[1,2,4]triazol-3-ylsulfanyl]-acetamide] | 68.2 |  |  |  | 32.1
23 | COc1ccc(-c2nnc(SCC(=O)Nc3ccc(C)cc3C)[nH]2)cc1 [ACT-CK-096] | 149 |  |  |  | 34
24 | COc1ccc(-c2nnc(SCC(=O)Nc3cc(F)ccc3C)[nH]2)cc1 [ACT-CK-066, N-(5-Fluoro-2-methyl-phenyl)-2-[5-(4-methoxy-phenyl)-4H-[1,2,4]triazol-3-ylsulfanyl]-acetamide] | 76.2 |  |  |  | 11.4
25 | CCOc1ccc(-c2nnc(SCC(=O)Nc3cc(C(F)(F)F)cc(C(F)(F)F)c3)[nH]2)cc1 [ACT-CK-152, N-(3,5-Bis-trifluoromethyl-phenyl)-2-[5-(4-ethoxy-phenyl)-4H-[1,2,4]triazol-3-ylsulfanyl]-acetamide] |  |  |  | 47 | 
